{"source": "paper PMC4160109", "about": "(Clinical cancer research : an official journal of the …, 2014)", "key": {"[1]": {"system": "advanced solid tumors", "conditions": "cited from earlier work"}, "[2]": {"system": "patients", "conditions": "cited from earlier work"}, "[3]": {"assay": "Urine PK of oral rigosertib in phase I patients", "assay_type": "in vivo, human"}, "[4]": {"system": "advanced solid malignancies", "assay": "Phase I antitumor activity", "assay_type": "in vivo, human", "conditions": "for median time on study: all patients"}, "[5]": {"system": "dogs", "assay": "Preclinical severely toxic dose in 10% of animals, dogs", "assay_type": "in vivo, dog"}, "[6]": {"system": "rats", "assay": "Preclinical severely toxic dose in 10% of animals, rats", "assay_type": "in vivo, rat", "conditions": "twice daily"}, "[7]": {"system": "patients with advanced solid malignancies", "conditions": "in vivo"}, "[8]": {"assay": "Plasma PK of oral rigosertib in phase I patients", "assay_type": "in vivo, human", "conditions": "for CI7F: plasma, mean ± SD"}}}
{"smiles": "CC[C@@H]1C(=O)N(C)c2cnc(Nc3ccc(C(=O)NC4CCN(C)CC4)cc3OC)nc2N1C1CCCC1", "note": "[BI-2536]", "values": [{"measurement": "phase I CBR", "setting": "[1]", "result": 32, "unit": "%"}, {"measurement": "phase I PR", "setting": "[1]", "result": 0, "unit": "%"}, {"measurement": "phase I stable disease", "setting": "[1]", "result": 32, "unit": "%"}]}
{"smiles": "Nc1cc(C(F)(F)F)c(-c2cc(N3CCOCC3)nc(N3CCOCC3)n2)cn1", "note": "[BKM120]", "values": [{"measurement": "phase I RR", "setting": "[1]", "result": 2.8, "unit": "%"}]}
{"smiles": "C=CCN(/C=C1/C(=O)O[C@H](COC)[C@@]2(C)C1=C(O)C(=O)C1=C2[C@H](OC(C)=O)C[C@]2(C)C(=O)CC[C@@H]12)CC=C", "note": "[PX-866]", "values": [{"measurement": "phase I RR", "setting": "[1]", "result": 0, "unit": "%"}, {"measurement": "hyperglycemia", "setting": "[2]", "result": "do not cause hyperglycemia"}]}
{"smiles": "COc1ccc(Cl)c(Nc2nc3ccccc3nc2NS(=O)(=O)c2cccc(NC(=O)C(C)(C)N)c2)c1", "note": "[XL147]", "values": [{"measurement": "hyperglycemia", "setting": "[2]", "result": "do not cause hyperglycemia"}]}
{"smiles": "COc1cc(OC)c(/C=C/S(=O)(=O)Cc2ccc(OC)c(NCC(=O)O)c2)c(OC)c1", "note": "[rigosertib, sodium (E)-2-{2-methoxy-5-[(2′,4′ ,6′-trimethoxys-tyrylsulfonyl)methyl]phenylamino}acetate]", "values": [{"measurement": "24-hour urine excretion", "setting": "[3]; nonsymptomatic patients, mean (SD 2.8)", "result": 18.7, "unit": "mg"}, {"measurement": "24-hour urine excretion", "setting": "[3]; patients with urinary symptoms, mean (SD 7.9)", "result": 16.6, "unit": "mg"}, {"measurement": "overall response rate (RR)", "setting": "[4]; 2/46 evaluable patients, all dose levels", "result": 4.3, "unit": "%"}, {"measurement": "duration of stable disease", "setting": "[4]; 8 patients with stable disease for 12 or more weeks, range", "result": "12–36 weeks"}, {"measurement": "clinical benefit rate (CBR = CR + PR + stable disease)", "setting": "[4]; 10/46 evaluable patients, stable disease ≥ 12 weeks", "result": 21.7, "unit": "%"}, {"measurement": "patients with stable disease for ≥ 12 weeks", "setting": "[4]; all dose levels", "result": 8}, {"measurement": "median time on study", "setting": "[4]", "result": 2, "unit": "cycles"}, {"measurement": "median time on study", "setting": "[4]; range, 1–101+", "result": 6, "unit": "weeks"}, {"measurement": "best response", "setting": "[4]; one patient, platinum-refractory HPV-positive HNSCC, 560 mg twice daily", "result": "partial response"}, {"measurement": "time on study", "setting": "[4]; patient with CR, HPV-negative HNSCC, 280 mg twice daily", "result": "≥ 101", "unit": "weeks"}, {"measurement": "time on study", "setting": "[4]; patient with PR, HPV-positive HNSCC, 560 mg twice daily", "result": 50, "unit": "weeks"}, {"measurement": "tumor size decrease from its maximum", "setting": "[4]; patient with PR, HPV-positive HNSCC, 560 mg twice daily, cycle 5", "result": 40, "unit": "%"}, {"measurement": "human equivalent of severely toxic dose in 10% of dogs and rats", "setting": "[5]; 60 kg human", "result": 12.2, "unit": "mg/kg"}, {"measurement": "human equivalent of severely toxic dose in 10% of dogs and rats", "setting": "[5]; 60 kg human with a safety factor of 10", "result": 73, "unit": "mg"}, {"measurement": "severely toxic dose in 10% of animals", "setting": "[5]; dogs, twice daily", "result": 75, "unit": "mg/kg"}, {"measurement": "severely toxic dose in 10% of animals", "setting": "[6]", "result": 75, "unit": "mg/kg"}, {"measurement": "Fatigue, treatment-related AE (patients)", "setting": "[7]; human", "result": 1}, {"measurement": "Hematuria, treatment-related AE (patients)", "setting": "[7]; human", "result": 2}, {"measurement": "Pelvic pain, treatment-related AE (patients)", "setting": "[7]; human", "result": 1}, {"measurement": "median time to onset of urinary symptoms", "setting": "[7]; human", "result": 4, "unit": "weeks"}, {"measurement": "patients experiencing serious AEs", "setting": "[7]; human", "result": 13}, {"measurement": "patients with doses held for toxicity", "setting": "[7]; human", "result": 14}, {"measurement": "patients with doses reduced for toxicity", "setting": "[7]; human", "result": 13}, {"measurement": "patients with grade 2 or 3 urinary symptoms", "setting": "[7]; human", "result": 15}, {"measurement": "patients with serious AE considered possibly drug-related", "setting": "[7]; human", "result": 1}, {"measurement": "time to resolution of urinary symptoms after drug discontinuation", "setting": "[7]; human", "result": "≤ 14", "unit": "days"}, {"measurement": "Patients with a DLT", "setting": "[7]; human, 21 days", "result": 2}, {"measurement": "patients with a DLT", "setting": "[7]; human, 21 days", "result": 1}, {"measurement": "recommended phase II dose (RP2D)", "setting": "[7]; human, po, 21 days", "result": 560, "unit": "mg"}, {"measurement": "patients with grade 3 nonhematologic toxicity", "setting": "[7]", "result": "Seven"}, {"measurement": "tolerability of dose level", "setting": "[7]", "result": "considered intolerable"}, {"measurement": "Dose-limiting toxicities", "setting": "[7]; po", "result": "hematuria and dysuria"}, {"measurement": "plasma pharmacokinetics, dose dependence", "setting": "[8]; oral 70-700 mg twice daily", "result": "linear and dose proportional"}, {"measurement": "CI7F", "setting": "[8]; 70 mg twice daily oral, Day 1 cycle 1, n = 3", "result": "71.54 ±42.87", "unit": "I7h"}, {"measurement": "CI7F", "setting": "[8]; 140 mg twice daily oral, Day 1 cycle 1, n = 4", "result": "171.29 ± 155.74", "unit": "I7h"}, {"measurement": "CI7F", "setting": "[8]; 140 mg twice daily oral, Day 21 cycle 1, n = 4", "result": "55.64 ± 36.62", "unit": "I7h"}, {"measurement": "CI7F", "setting": "[8]; 280 mg twice daily oral, Day 1 cycle 1, n = 5", "result": "122.84 ± 123.67", "unit": "I7h"}, {"measurement": "CI7F", "setting": "[8]; 280 mg twice daily oral, Day 21 cycle 1, n = 3", "result": "127.45 ±66.13", "unit": "I7h"}, {"measurement": "CI7F", "setting": "[8]; 560 mg twice daily oral, Day 1 cycle 1, n = 32", "result": "93.28 ± 58.24", "unit": "I7h"}, {"measurement": "CI7F", "setting": "[8]; 560 mg twice daily oral, Day 21 cycle 1, n = 24", "result": "116.33 ±56.32", "unit": "I7h"}, {"measurement": "CI7F", "setting": "[8]; 700 mg twice daily oral, Day 1 cycle 1, n = 7", "result": "64.62 ± 34.70", "unit": "I7h"}, {"measurement": "CI7F", "setting": "[8]; 700 mg twice daily oral, Day 21 cycle 1, n = 2", "result": "149.9 ±51.79", "unit": "I7h"}]}
